Reference: publication PMC8855368 (Journal of medicinal chemistry, 2019)
pIC50: −log10 of the molar value.

What was measured:
[1] = molecular target: T1, GSTO1–1 (Homo sapiens, UniProt P78417); settings: GSTO1–1 binding assay
T1 sequence (P78417 1-241): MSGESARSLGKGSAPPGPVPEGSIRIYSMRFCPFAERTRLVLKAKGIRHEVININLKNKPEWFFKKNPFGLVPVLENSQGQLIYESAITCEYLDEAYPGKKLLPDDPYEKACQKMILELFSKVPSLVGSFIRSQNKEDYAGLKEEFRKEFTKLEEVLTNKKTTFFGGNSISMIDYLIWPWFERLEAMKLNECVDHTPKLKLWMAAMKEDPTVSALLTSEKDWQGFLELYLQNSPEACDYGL

[2] = test system: HCT116; experiment: MTT cell viability assay, HCT116; format: cell-based; settings: read-out: IC50-MTT HCT116; HCT116, 72 h; values of two independent experiments
[3] = Stability in 20% acetonitrile/PBS buffer by LC–MS; format: physicochemical; settings: room temperature overnight

SMILES: C=CC(=O)Nc1cnn(-c2ccccc2)c1 [Compound 5, N-(1-Phenyl-1H-pyrazol-4-yl)acrylamide]
- GSTO1–1 binding activity (in words) [1]: inactive

SMILES: C=CC(=O)Nc1cnn(Cc2ccccc2)c1 [Compound 6, N-(1-Benzyl-1H-pyrazol-4-yl)acrylamide]
- GSTO1–1 binding activity (in words) [1]: inactive

SMILES: C=CC(=O)N1CCC(c2ccccc2)CC1 [Compound 7, 1-(4-Phenylpiperidin-1-yl)prop-2-en-1-one]
- GSTO1–1 binding activity (in words) [1]: did not possess significant GSTO1–1 binding activity

SMILES: C=CC(=O)N1CCC(Cc2ccccc2)CC1 [Compound 8, 1-(4-Benzylpiperidin-1-yl)prop-2-en-1-one]
- GSTO1–1 binding activity (in words) [1]: did not possess significant GSTO1–1 binding activity

SMILES: C=CC(=O)Nc1nc(-c2ccc(O)cc2)cs1 [Compound 25, N-(4-(4-Hydroxylphenyl)thiazol-2-yl)acrylamide]
- pIC50 [2]: 5.15

SMILES: C=CC(=O)Nc1nc(-c2ccccc2OC)cs1 [Compound 26, N-(4-(2-Methoxyphenyl)thiazol-2-yl)acrylamide]
- GSTO1–1 binding activity (in words) [1]: inactive

SMILES: C=CC(=O)N(Cc1cc(C)no1)c1nc(-c2ccccc2O)cs1 [Compound 49, N-((3-Methylisoxazol-5-yl)methyl)-N-(4-(2-hydroxylphenyl)thiazol-2-yl)acrylamide]
- stability in 20% acetonitrile/PBS buffer solution [3]: good stability
